According to paper PMC7216583 (Parasites & Vectors, 2020):
Where a name gives a salt, the structure may show the parent alone. Read-outs that look alike come from different tables or passages of the source.

Assays:
[1] = tested on: non-muscle myosin II ATPases; set-up: method as in vendor brief description; settings: ref vendor brief description; cited from earlier work
[2] = tested on: Toxoplasma gondii RH-2F tachyzoites; experiment: microbe, parasite or virus in culture; settings: 72 h
[3] = target: transient receptor potential vanilloid-1 (TRPV1); set-up: method as in vendor brief description; settings: ref vendor brief description; cited from earlier work
PDE4 = tested on: PDE4; set-up: method as in vendor brief description; settings: ref vendor brief description; cited from earlier work
TNF-α = tested on: TNF-α; set-up: method as in vendor brief description; settings: ref vendor brief description; cited from earlier work
B-Raf = tested on: B-Raf; set-up: method as in vendor brief description; settings: ref vendor brief description; cited from earlier work
c-Raf = tested on: c-Raf; set-up: method as in vendor brief description; settings: ref vendor brief description; cited from earlier work
Abl = tested on: Abl; set-up: method as in vendor brief description; settings: ref vendor brief description; read-out: IC50 Abl-1; cited from earlier work
CSF-1R = tested on: CSF-1R; set-up: method as in vendor brief description; settings: ref vendor brief description; cited from earlier work
cytomegalovirus (CMV) = tested on: cytomegalovirus (CMV); set-up: method as in vendor brief description; settings: target not stated with the value; ref vendor brief description; cited from earlier work
[4] = tested on: Toxoplasma gondii RH-2F tachyzoites; settings: 72 h, 5 μM
αvβ3 receptor = target: αvβ3 receptor; set-up: method as in vendor brief description; settings: ref vendor brief description; cited from earlier work
αvβ5 receptor = target: αvβ5 receptor; set-up: method as in vendor brief description; settings: ref vendor brief description; cited from earlier work
SGLT2 = tested on: SGLT2; set-up: method as in vendor brief description; settings: ref vendor brief description; cited from earlier work
B-RafV600E = tested on: B-RafV600E; set-up: method as in library vendor description; settings: ref library vendor description; cited from earlier work
PPARδ = tested on: PPARδ; set-up: method as in vendor brief description; settings: ref vendor brief description; cited from earlier work
in vitro = settings: human, Host viability (%) mean
IGF-1R = tested on: IGF-1R; set-up: method as in library vendor description; settings: ref library vendor description; cited from earlier work
IR = tested on: IR; set-up: method as in library vendor description; settings: ref library vendor description; cited from earlier work
HDAC10 = tested on: HDAC10; set-up: method as in library vendor description; settings: ref library vendor description; cited from earlier work
c-Met = tested on: c-Met; set-up: method as in library vendor description; settings: ref library vendor description; cited from earlier work
HDAC = tested on: HDAC; set-up: method as in library vendor description; settings: ref library vendor description; cited from earlier work
endothelin receptor-A = target: endothelin receptor-A; set-up: method as in vendor brief description; settings: ref vendor brief description; cited from earlier work
ET-B = tested on: ET-B; set-up: method as in vendor brief description; settings: ref vendor brief description; read-out: IC50 endothelin (ET) B receptor; cited from earlier work
human cathepsin K = tested on: human cathepsin K; set-up: method as in library vendor description; settings: ref library vendor description; cited from earlier work
rabbit cathepsin K = tested on: rabbit cathepsin K; set-up: method as in library vendor description; settings: ref library vendor description; cited from earlier work
[5] = target: cannabinoid type 1 receptor; set-up: method as in vendor brief description; settings: ref vendor brief description; cited from earlier work
5-HT2B = tested on: 5-HT2B; set-up: method as in vendor brief description; settings: ref vendor brief description; cited from earlier work
[6] = target: influenza viral neuraminidase; set-up: method as in vendor catalog number S2716; settings: median; compound library brief description; ref vendor catalog number S2716; read-out: IC50 of median (influenza viral neuraminidase inhibitor); cited from earlier work
CXCR4 = tested on: CXCR4; set-up: method as in vendor brief description; settings: ref vendor brief description; cited from earlier work
[7] = tested on: CXCL12-mediated chemotaxis; settings: read-out: IC50 CXCL12-mediated chemotaxis; ref vendor brief description; cited from earlier work
S. aureus ribosomes = target: S. aureus ribosomes; set-up: method as in vendor catalog number S4056; settings: similar potencies on both ribosomes; compound library brief description; ref vendor catalog number S4056; read-out: Kd (binds to S. aureus ribosomes); cited from earlier work
Pim1 = settings: read-out: IC50 Pim1; ref vendor brief description; cited from earlier work
ALK = tested on: ALK; set-up: method as in library vendor description; settings: ref library vendor description; cited from earlier work
gastric H+, K+-ATPase = target: gastric H+, K+-ATPase; set-up: method as in vendor brief description; settings: at pH 6.5; ref vendor brief description; cited from earlier work
P-glycoprotein = target: P-glycoprotein; set-up: method as in vendor brief description; settings: ref vendor brief description; cited from earlier work
[8] = target: secretory phospholipase A2 (sPLA); set-up: method as in library vendor description; settings: ref library vendor description; cited from earlier work
hedgehog = tested on: hedgehog; set-up: method as in library vendor description; settings: ref library vendor description; cited from earlier work
P-gp = tested on: P-gp; set-up: method as in library vendor description; settings: ref library vendor description; cited from earlier work
5-HT7 receptor = target: 5-HT7 receptor; set-up: method as in vendor brief description; settings: ref vendor brief description; cited from earlier work
5-HT3A = tested on: 5-HT3A; set-up: method as in vendor brief description; settings: ref vendor brief description; read-out: IC50 5-HT(3A); cited from earlier work
5-HT1A = tested on: 5-HT1A; set-up: method as in vendor brief description; settings: ref vendor brief description; cited from earlier work
5-HT(1B) = tested on: 5-HT(1B); set-up: method as in vendor brief description; settings: ref vendor brief description; cited from earlier work
SERT = tested on: SERT; set-up: method as in vendor brief description; settings: ref vendor brief description; cited from earlier work
[9] = target: epidermal growth factor receptor (EGFR); set-up: method as in vendor brief description; settings: ref vendor brief description; read-out: IC50 EFGR; cited from earlier work
JAK1 = tested on: JAK1; set-up: method as in vendor brief description; settings: ref vendor brief description; cited from earlier work
JAK3 = tested on: JAK3; set-up: method as in vendor brief description; settings: ref vendor brief description; cited from earlier work
TGM2 = tested on: TGM2; set-up: method as in vendor brief description; settings: ref vendor brief description; cited from earlier work
[10] = read-out: Parasite inhibition (%) mean, preliminary screen of compound library, mean
[11] = read-out: Parasite inhibition (%) mean, preliminary screen, mean

SMILES: Cc1ccc2c(c1)C(=O)[C@]1(O)CCN(c3ccccc3)C1=N2 [(−)-Blebbistatin]
- IC50 [1]: 500 to 5000 nM
- inhibition of growth at 5 µM [2, 10]: -56.7%

SMILES: CC(=O)Nc1nc2c(Oc3cc(-c4ccc(C(F)(F)F)cc4)ncn3)cccc2s1 [AMG-517]
- IC50 [3]: < 10 nM
- inhibition of growth at 5 µM [2, 10]: 0.6%

SMILES: CCOc1cc([C@@H](CS(C)(=O)=O)N2C(=O)c3cccc(NC(C)=O)c3C2=O)ccc1OC [Apremilast (CC-10004)]
- IC50 (PDE4): 74 nM
- IC50 (TNF-α): 77 nM
- inhibition of growth at 5 µM [2, 10]: -1.4%

SMILES: COc1cc2ncnc(Oc3cccc(NC(=O)Nc4cc(C(C)(C)C(F)(F)F)on4)c3)c2cc1OC [CEP-32496]
- IC50 (B-Raf): 36 nM
- IC50 (c-Raf): 39 nM
- IC50 (Abl): 3 nM
- IC50 (CSF-1R): 9 nM
- inhibition of growth at 5 µM [2, 10]: 0%

SMILES: Nc1ccn(C[C@@H](CO)OCP(=O)(O)O)c(=O)n1 [Cidofovir (Vistide)]
- IC50 (cytomegalovirus (CMV)): 940 nM
- inhibition of growth at 5 µM [2, 10]: 0.8%

SMILES: CC(C)[C@H]1C(=O)N[C@@H](CCCNC(=N)N)C(=O)NCC(=O)N[C@@H](CC(=O)O)C(=O)N[C@H](Cc2ccccc2)C(=O)N1C [Cilengitide (EMD 121974, NSC 707544)]
- Parasite inhibition (%) mean [4]: 4.9%
- IC50 (αvβ5 receptor): 79 nM

SMILES: OC[C@H]1O[C@@H](c2ccc(Cl)c(Cc3ccc(O[C@H]4CCOC4)cc3)c2)[C@H](O)[C@@H](O)[C@@H]1O [Empagliflozin (BI10773)]
- IC50 (SGLT2): 3.1 nM
- inhibition of growth at 5 µM [2, 10]: 3.8%

SMILES: OCCn1cc(-c2ccc3c(c2)CC/C3=N\O)c(-c2ccncc2)n1 [GDC-0879]
- IC50 (B-RafV600E): 0.13 nM
- inhibition of growth at 5 µM [2, 11]: 7.9%

SMILES: O=C(NCCS(=O)(=O)c1ccc(C(F)(F)F)cn1)c1ccc(Cl)cc1 [GSK3787]
- pIC50 PPARδ (PPARδ): GSK3787 is as a potent and selective antagonist of PPARδ with pIC50 of 6.6.
- inhibition of growth at 5 µM [2, 10]: 9%

SMILES: CCc1cc(Nc2nccc(-c3c(-c4ccc(OC)c(C(=O)Nc5c(F)cccc5F)c4)nc4ccccn34)n2)c(OC)cc1N1CCC(N2CCN(S(C)(=O)=O)CC2)CC1 [GSK1904529A]
- viability at 72 h (in vitro): 76.8%
- IC50 (IGF-1R): 27 nM
- IC50 (IR): 25 nM
- inhibition of growth at 5 µM [2, 11]: 70.6%

SMILES: Cn1cc(CNCC2CCN(c3ncc(C(=O)NO)cn3)CC2)c2ccccc21 [JNJ-26481585]
- viability at 72 h (in vitro): 70.5%
- IC50 (HDAC10): 0.46 nM
- inhibition of growth at 5 µM [2, 11]: 79.4%

SMILES: Cn1cc(-c2ccc3nnc(C(F)(F)c4ccc5ncccc5c4)n3n2)cn1 [JNJ-38877605]
- viability at 72 h (in vitro): 77.5%
- IC50 (c-Met): 4 nM
- inhibition of growth at 5 µM [2, 11]: 84.3%

SMILES: O=C(/C=C/c1ccc(CN(CCO)CCc2c[nH]c3ccccc23)cc1)NO [LAQ824 (NVP-LAQ824, Dacinostat)]
- IC50 (HDAC): 32 nM
- inhibition of growth at 5 µM [2, 11]: 60.4%

SMILES: CCCNS(=O)(=O)Nc1ncnc(OCCOc2ncc(Br)cn2)c1-c1ccc(Br)cc1 [Macitentan]
- IC50 (endothelin receptor-A): 0.5 nM
- IC50 (ET-B): 391 nM
- inhibition of growth at 5 µM [2, 10]: 12.3%

SMILES: CC(C)(F)C[C@H](N[C@@H](c1ccc(-c2ccc(S(C)(=O)=O)cc2)cc1)C(F)(F)F)C(=O)NC1(C#N)CC1 [Odanacatib (MK 0822)]
- IC50 (human cathepsin K): 0.2 nM
- IC50 (rabbit cathepsin K): 1 nM
- inhibition of growth at 5 µM [2, 11]: -9.7%

SMILES: CCNC1(C(N)=O)CCN(c2ncnc3c2nc(-c2ccccc2Cl)n3-c2ccc(Cl)cc2)CC1 [Otenabant (CP-945598) HCl]
- Ki [5]: 0.7 nM
- inhibition of growth at 5 µM [2, 10]: 0.3%

SMILES: N#Cc1cc(CN2CCC(Nc3ncnc4sc(Cl)cc34)CC2)ccc1F [PRX-08066]
- IC50 (5-HT2B): 3.4 nM
- inhibition of growth at 5 µM [2, 10]: 40.5%

SMILES: CCC(CC)[C@H](NC(C)=O)[C@@H]1[C@H](O)[C@@H](C(=O)O)C[C@H]1NC(=N)N [Peramivir Trihydrate]
- IC50 [6]: 0.09 nM
- inhibition of growth at 5 µM [2, 10]: -0.4%

SMILES: c1cc(CN2CCCNCCNCCCNCC2)ccc1CN1CCCNCCNCCCNCC1 [Plerixafor (AMD3100)]
- IC50 (CXCR4): 44 nM
- IC50 [7]: 5.7 nM
- inhibition of growth at 5 µM ([2]; read-out: Parasite inhibition (%) mean): 12.9%

SMILES: C=C[C@]1(C)C[C@@H](OC(=O)CS[C@@H]2C[C@H]3CC[C@@H](C2)N3C)[C@]2(C)[C@H](C)CC[C@]3(CCC(=O)[C@H]32)[C@@H](C)[C@@H]1O [Retapamulin]
- Kd (S. aureus ribosomes): 3 nM

SMILES: O=C1NC(=O)/C(=C\c2cccc(C(F)(F)F)c2)S1 [SMI-4a]
- IC50 (Pim1): 17 nM
- inhibition of growth at 5 µM [2, 10]: 8.9%

SMILES: COc1cc(N2CCC(N3CCN(C)CC3)CC2)ccc1Nc1ncc(Cl)c(Nc2ccccc2S(=O)(=O)C(C)C)n1 [TAE684 (NVP-TAE684)]
- inhibition of growth at 5 µM [2, 11]: 6.8%

SMILES: CNCc1cc(-c2ccccc2F)n(S(=O)(=O)c2cccnc2)c1 [TAK-438]
- IC50 (gastric H+, K+-ATPase): 19 nM
- inhibition of growth at 5 µM [2, 10]: -9.6%

SMILES: COc1cc2c(cc1OC)CN(CCc1ccc(NC(=O)c3cc(OC)c(OC)cc3NC(=O)c3cnc4ccccc4c3)cc1)CC2 [Tariquidar]
- Kd (P-glycoprotein): 5.1 nM
- inhibition of growth at 5 µM [2, 10]: 0.4%

SMILES: CCc1c(C(=O)C(N)=O)c2c(OCC(=O)O)cccc2n1Cc1ccccc1 [Varespladib (LY315920)]
- IC50 [8]: 7 nM
- inhibition of growth at 5 µM [2, 11]: 36.6%

SMILES: CS(=O)(=O)c1ccc(C(=O)Nc2ccc(Cl)c(-c3ccccn3)c2)c(Cl)c1 [Vismodegib (GDC-0449)]
- IC50 (hedgehog): 3 nM
- inhibition of growth at 5 µM [2, 11]: 25.5%

SMILES: Cc1ccc(Sc2ccccc2N2CCNCC2)c(C)c1 [Vortioxetine (Lu AA21004) hydrobromide]
- IC50 (5-HT7 receptor): 19 nM
- IC50 (5-HT3A): 3.7 nM
- IC50 (5-HT1A): 15 nM
- IC50 (5-HT(1B)): 33 nM
- IC50 (SERT): 1.6 nM
- inhibition of growth at 5 µM [2, 10]: 66.8%

SMILES: CC(C)N(CCC(=O)c1ccc2ccccc2c1)Cc1ccccc1 [ZM 39923 HCl]
- IC50 [9]: 5600 nM
- IC50 (JAK1): 4400 nM
- IC50 (JAK3): 7100 nM
- IC50 (TGM2): 10 nM
- inhibition of growth at 5 µM [2, 10]: 13.9%
